Measurements as given in PubChem BioAssay (NCI).
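Each compound was tested at five concentrations against cells in 96-well plates for 48 hours. Abbreviation: GI50, concentration required for 50% inhibition of growth. TGI is the concentration that stops growth completely.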

Assays:
Assay in all cases: NCI tumour cell line growth inhibition, 48 h
[1] = tested on: SF-295 CNS
[2] = tested on: CAKI-1 renal
[3] = tested on: OVCAR-4 ovarian
[4] = tested on: TK-10 renal
[5] = tested on: MDA-MB-435
[6] = tested on: MALME-3M melanoma
[7] = tested on: A549 NSCLC
[8] = tested on: ACHN renal
[9] = tested on: NCI-H226 lung
[10] = tested on: BT-549 breast
[11] = tested on: M14 melanoma
[12] = tested on: SNB-75 CNS
[13] = tested on: A498 renal
[14] = tested on: KM12 colon
[15] = tested on: SN12C renal
[16] = tested on: SF-539 CNS
[17] = tested on: SK-MEL-28 melanoma
[18] = tested on: OVCAR-3 ovarian
[19] = tested on: COLO 205 colon
[20] = tested on: SR leukemia
[21] = tested on: HCT-15 colon
[22] = tested on: EKVX NSCLC
[23] = tested on: MOLT-4 leukemia
[24] = tested on: HS 578T breast
[25] = tested on: UACC-257 melanoma
[26] = tested on: HCC-2998 colon
[27] = tested on: U251 CNS
[28] = tested on: NCI-H460 lung
[29] = tested on: LOX IMVI melanoma
[30] = tested on: SNB-19 CNS
[31] = tested on: SK-OV-3 ovarian
[32] = tested on: NCI/ADR-RES ovarian
[33] = tested on: OVCAR-8 ovarian
[34] = tested on: HT29 colon
[35] = tested on: HOP-62 NSCLC
[36] = tested on: SK-MEL-5 melanoma
[37] = tested on: CCRF-CEM leukemia
[38] = tested on: RPMI-8226 leukemia
[39] = tested on: T-47D breast
[40] = tested on: MDA-MB-231 breast
[41] = tested on: NCI-H522 lung
[42] = tested on: K-562 leukemia
[43] = tested on: HOP-92 NSCLC
[44] = tested on: 786-0 renal
[45] = tested on: HL-60(TB) leukemia
[46] = tested on: RXF 393 renal
[47] = tested on: SK-MEL-2 melanoma
[48] = tested on: UO-31 renal
[49] = tested on: SF-268 CNS
[50] = tested on: OVCAR-5 ovarian
[51] = tested on: MCF7 breast
[52] = tested on: IGROV1 ovarian
[53] = tested on: DU-145 prostate
[54] = tested on: PC-3 prostate
[55] = tested on: HCT-116 colon
[56] = tested on: UACC-62 melanoma
[57] = tested on: SW-620 colon

C[C@@H]1Cc2c(ccc3[nH]ncc23)[C@@H](c2ccc(NC3CN(CCCF)C3)cn2)N1CC(F)(F)F
GI50 [1]: 18 µM | TGI [1]: 36.9 µM | GI50 [2]: 15.9 µM | TGI [2]: 37.1 µM | GI50 [3]: 32.9 µM | TGI [3]: > 100 µM | GI50 [4]: 17.9 µM | TGI [4]: 44.7 µM | GI50 [5]: 17.2 µM | TGI [5]: 34.8 µM | GI50 [6]: 12.4 µM | TGI [6]: 26.6 µM | GI50 [7]: 30.8 µM | TGI [7]: > 100 µM | GI50 [8]: 22.2 µM | TGI [8]: 53 µM | GI50 [9]: 39 µM | TGI [9]: > 100 µM | GI50 [10]: 16 µM | TGI [10]: 37.2 µM | GI50 [11]: 16.5 µM | TGI [11]: 32.2 µM | GI50 [12]: 12.7 µM | TGI [12]: > 100 µM | GI50 [13]: 15.6 µM | TGI [13]: 36.6 µM | GI50 [14]: 31.3 µM | TGI [14]: > 100 µM | GI50 [15]: 24 µM | TGI [15]: 79 µM | GI50 [16]: 16.9 µM | TGI [16]: 32.5 µM | GI50 [17]: 16.5 µM | TGI [17]: 32.1 µM | GI50 [18]: 20.3 µM | TGI [18]: 57.8 µM | GI50 [19]: 16.5 µM | TGI [19]: 35.5 µM | GI50 [20]: 16.8 µM | TGI [20]: 53.1 µM | GI50 [21]: 16.7 µM | TGI [21]: 35 µM | GI50 [22]: 28.9 µM | TGI [22]: > 100 µM | GI50 [23]: 19.6 µM | TGI [23]: > 100 µM | GI50 [24]: 15 µM | TGI [24]: 41 µM | GI50 [25]: 17.9 µM | TGI [25]: 38.3 µM | GI50 [26]: 17.2 µM | TGI [26]: 33.5 µM | GI50 [27]: 15.8 µM | TGI [27]: 36.7 µM | GI50 [28]: 18.8 µM | TGI [28]: 37.8 µM | GI50 [29]: 16.1 µM | TGI [29]: 31.4 µM | GI50 [30]: 28.3 µM | TGI [30]: > 100 µM | GI50 [31]: 14.3 µM | TGI [31]: 37.1 µM | GI50 [32]: 32.3 µM | TGI [32]: > 100 µM | GI50 [33]: 23.5 µM | TGI [33]: 69.8 µM | GI50 [34]: 13.7 µM | TGI [34]: 43.2 µM | GI50 [35]: 15.3 µM | TGI [35]: 34.8 µM | GI50 [36]: 14.3 µM | TGI [36]: 28.2 µM | GI50 [37]: 21.1 µM | TGI [37]: 67.3 µM | GI50 [38]: 18.6 µM | TGI [38]: 47.4 µM | GI50 [39]: < 0.01 µM | TGI [39]: 23.2 µM | GI50 [40]: 17 µM | TGI [40]: 34.5 µM | GI50 [41]: 20.2 µM | TGI [41]: 45.7 µM | GI50 [42]: 19.4 µM | TGI [42]: 54.9 µM | GI50 [43]: 3.1 µM | TGI [43]: 20.1 µM | GI50 [44]: 14.4 µM | TGI [44]: 28.4 µM | GI50 [45]: 15.7 µM | TGI [45]: 43.4 µM | GI50 [46]: 6.8 µM | TGI [46]: 22.9 µM | GI50 [47]: 19 µM | TGI [47]: 42.9 µM | GI50 [48]: 12.6 µM | TGI [48]: 26.8 µM | GI50 [49]: 22.3 µM | TGI [49]: 79.4 µM | GI50 [50]: 26.4 µM | TGI [50]: > 100 µM | GI50 [51]: < 0.01 µM | TGI [51]: 16.1 µM | GI50 [52]: 20.2 µM | TGI [52]: 62.4 µM | GI50 [53]: 35.2 µM | TGI [53]: > 100 µM | GI50 [54]: 15.6 µM | TGI [54]: 47.8 µM | GI50 [55]: 14.5 µM | TGI [55]: 28.2 µM | GI50 [56]: 15.2 µM | TGI [56]: 30.5 µM | GI50 [57]: 17.5 µM | TGI [57]: 34.3 µM
